According to ChEMBL document CHEMBL4330082, “Tailoring a lead-like compound targeting multiple G-quadruplex structures” (Eur J Med Chem, 2019):
Calls of active or inactive are those of the source. The calls are words filed in the database; no cut-off is given here.

Columns and labels:
[1] = test system: Quadruplex DNA; assay: Binding affinity to synthetic telomeric 26 G-quadruplex DNA assessed as residual binding at 60 uM after 4 mins by UV-Vis spectrophotometric analysis relative to control; assay type: nucleic-acid assay
[2] = test system: Quadruplex DNA; assay: Binding affinity to synthetic c-Kit2 G-quadruplex DNA assessed as residual binding at 60 uM after 4 mins by UV-Vis spectrophotometric analysis relative to control; assay type: nucleic-acid assay
[3] = test system: HeLa; assay: Inhibition of colony formation in human HeLa cells at 2 uM after 10 days by methylene blue staining-based assay; assay type: functional, cell-based
[4] = organism: Homo sapiens; assay: Induction of telomeric DNA damage in human BJeH-LT cells expressing human TERT assessed as increase in gamma-histone H2AX levels at 0.5 uM after 24 hrs by immunofluorescence assay; assay type: functional, cell-based
[5] = test system: Quadruplex DNA; assay: Binding affinity to synthetic cMYC G-quadruplex DNA assessed as residual binding at 60 uM after 4 mins by UV-Vis spectrophotometric analysis relative to control; assay type: nucleic-acid assay
[6] = test system: Quadruplex DNA; assay: Binding affinity to synthetic c-Kit1 G-quadruplex DNA assessed as residual binding at 60 uM after 4 mins by UV-Vis spectrophotometric analysis relative to control; assay type: nucleic-acid assay
[7] = test system: dsDNA; assay: Binding affinity to synthetic 27-mer duplex DNA assessed as residual binding at 60 uM after 4 mins by UV-Vis spectrophotometric analysis relative to control; assay type: nucleic-acid assay
[8] = organism: Homo sapiens; assay: Induction of telomeric DNA damage in human BJeH-LT cells expressing human TERT assessed as increase in TIF positive cells at 0.5 uM after 24 hrs by immunofluorescence assay; assay type: functional, cell-based
[9] = test system: Quadruplex DNA; assay: Binding affinity to human TERT1 G-quadruplex DNA assessed as residual binding at 60 uM after 4 mins by UV-Vis spectrophotometric analysis relative to control; assay type: nucleic-acid assay
[10] = test system: dsDNA; assay: Binding affinity to synthetic 27-mer duplex DNA assessed as melting temperature compound:DNA ratio of 5:1 after 5 mins by CD spectra analysis (reference value: 75 degreeC); assay type: nucleic-acid assay
[11] = test system: dsDNA; assay: Binding affinity to synthetic 12-mer duplex DNA assessed as melting temperature compound:DNA ratio of 4:1 by 1H NMR spectroscopic analysis; assay type: nucleic-acid assay
[12] = test system: Quadruplex DNA; assay: Binding affinity to synthetic cMYC G-quadruplex DNA assessed as melting temperature compound:DNA ratio of 5:1 after 5 mins by CD spectra analysis (reference value: 82 degreeC); assay type: nucleic-acid assay
[13] = test system: HeLa; assay: Inhibition of colony formation in human HeLa cells at 0.5 to 2 uM after 10 days by methylene blue staining-based assay; assay type: functional
[14] = test system: Quadruplex DNA; assay: Binding affinity to synthetic telomeric 26 G-quadruplex DNA assessed as melting temperature compound:DNA ratio of 5:1 after 5 mins by CD spectra analysis (reference value: 49 degreeC); assay type: nucleic-acid assay
[15] = test system: Quadruplex DNA; assay: Binding affinity to synthetic modified telomeric 24 G-quadruplex DNA assessed as melting temperature compound:DNA ratio of 4:1 by 1H NMR spectroscopic analysis; assay type: nucleic-acid assay
[16] = test system: BJ; assay: Cytotoxicity against in human BJ cells expressing human TERT assessed as reduction in cell viability at 1 to 2 uM incubated for 6 days by trypan blue exclusion assay; assay type: cell-based; details: 144 h
[17] = test system: Quadruplex DNA; assay: Induction of conformational changes in synthetic cMYC G-quadruplex DNA at 1 to 5 equivalents after 5 mins by CD spectra analysis; assay type: nucleic-acid assay
[18] = test system: Quadruplex DNA; assay: Binding affinity to synthetic MYC 22 G-quadruplex DNA assessed as melting temperature compound:DNA ratio of 4:1 by 1H NMR spectroscopic analysis; assay type: nucleic-acid assay
[19] = test system: dsDNA; assay: Induction of conformational changes in synthetic 27-mer duplex DNA at 1 to 5 equivalents after 5 mins by CD spectra analysis; assay type: nucleic-acid assay
[20] = test system: Quadruplex DNA; assay: Induction of conformational changes in synthetic telomeric 26 G-quadruplex DNA at 1 to 5 equivalents after 5 mins by CD spectra analysis; assay type: nucleic-acid assay
[21] = biological target: Quadruplex DNA; assay: Binding affinity to Cy5-fluorescently labeled synthetic Telomeric 26 G-quadruplex DNA by microscale thermophoresis assay; assay type: nucleic-acid assay
[22] = biological target: Quadruplex DNA; assay: Binding affinity to Cy5-fluorescently labeled synthetic MYC 22 G-quadruplex DNA by microscale thermophoresis assay; assay type: nucleic-acid assay

Activity [1] | Activity [2] | Activity [5] | Activity [6] | Activity [7] | Activity [9] | Structure (SMILES) | inhibition [3] | Activity [4] | Activity [8] | other results
73% | 67% | 84% | 55% | 16% | 73% | O=C1c2ccccc2C(=O)c2c1oc1c3c(ccc21)OCN(CCC1=CCCCC1)C3 | Active | Active | Active | –
79% | 88% | 94% | 90% | 28% | 89% | O=C1c2ccccc2C(=O)c2c1oc1c3c(ccc21)OCN(Cc1cccnc1)C3 | Active | inactive | inactive | –
86% | 92% | 93% | 90% | 2% | 91% | O=C1c2ccccc2C(=O)c2c1oc1c3c(ccc21)OCN(Cc1ccco1)C3 | Active | Active | Active | –
86% | 82% | 86% | 70% | 18% | 74% | O=C1c2ccccc2C(=O)c2c1oc1c3c(ccc21)OCN(C1CCCCC1)C3 | – | Active | Active | Tm [10]: 76 °C; Activity [11]: inactive; Tm [12]: > 90 °C; MED [13]: 2 µM; Tm [14]: 49 °C; Activity [15]: Active; Activity [16]: Toxic; Activity [17]: Active; Activity [18]: Active; Activity [19]: inactive; Activity [20]: Active
78% | 83% | 90% | 88% | 20% | 87% | O=C1c2ccccc2C(=O)c2c1oc1c3c(ccc21)OCN(CC1CCCO1)C3 (stereo not given) | Active | Active | Active | –
80% | 84% | 89% | 77% | 33% | 92% | O=C1c2ccccc2C(=O)c2c1oc1c3c(ccc21)OCN(CCCN1CCOCC1)C3 | Active | Active | Active | –
76% | 70% | 74% | 75% | 22% | 78% | CC(=O)c1c(C)oc2c1c1c(c3ccccc32)OCN(CCCN2CCOCC2)C1 | Active | inactive | inactive | –
75% | 68% | 73% | 72% | 16% | 76% | O=C1c2ccccc2C(=O)c2c1oc1c3c(ccc21)OCN(CC1CCS(=O)(=O)C1)C3 (stereo not given) | Active | inactive | inactive | –
80% | 91% | 94% | 85% | 46% | 82% | O=C1c2ccccc2C(=O)c2c1oc1c3c(ccc21)OCN(CCCn1ccnc1)C3 | Active | Active | Active | –
80% | 80% | 84% | 78% | 0% | 82% | CC(c1ccccc1)N1COc2ccc3c4c(oc3c2C1)C(=O)c1ccccc1C4=O (stereo not given) | – | Active | Active | Tm [10]: 76 °C; Activity [11]: inactive; Tm [12]: > 90 °C; Tm [14]: 50 °C; Kd [21]: 26 µM; Activity [15]: Active; Activity [16]: Non-Toxic; Activity [17]: Active; Activity [18]: Active; Kd [22]: 13 µM; Activity [19]: inactive; Activity [20]: Active
80% | 83% | 87% | 76% | 12% | 78% | O=C1c2ccccc2C(=O)c2c1oc1c3c(ccc21)OCN(Cc1ccccc1)C3 | Active | Active | Active | –
